Row | Structure (SMILES) | melting point
1 | COc1cc(OC)c2c(c1)OCC(CNCCCOc1cccc(N)c1)O2 (stereo not given) | 123 to 128 °C
2 | COCCOc1ccc(N)cc1S(=O)(=O)O | > 250 °C
3 | CCOC(=O)CNC(=O)CC(=O)CCl | 96 to 97 °C
4 | CCCc1c(OCc2ccccc2)ccc2c(C)c(C(=O)c3ccc(OC)cc3)oc12 | 105 to 106 °C
5 | O=[N+]([O-])c1cncnc1O | 300 °C
6 | C=CCNC(=O)C=Cc1cccc(F)c1 | 84.5 to 87 °C
7 | Oc1ccc(C2CC2(Cl)Cl)cc1 (stereo not given) | 54.5 to 56 °C
8 | CSc1ccc(-c2nnc(Cl)cc2-c2ccccc2)cc1 | 158 °C
9 | N#CCc1c[nH]c2ccc(CS(=O)(=O)NCc3ccccc3C(N)=O)cc12 | 202 to 206 °C
10 | Nc1cc(I)cc(CF)c1 | 48.5 to 50 °C
11 | CCN(CC)CCOc1ccc(-c2nnc(CSCCOc3ccccc3)o2)cc1 | 32 to 35 °C
12 | CC(=O)OC1CCC2(C)C(=CCC3C2CCC2(C)C(C(C)CCC(=O)O)CCC32)C1 (stereo not given) | 192 to 193 °C
13 | CC(C)(C)c1cc(C=C2CC(C)(C)N(C(N)=O)C2=O)cc(C(C)(C)C)c1O | 200 to 203 °C
14 | CCC1(CC)C(=O)ON(C(=O)c2cc(OC)c(OC)c(OC)c2)C1=O | 103 to 106 °C
15 | COC(=O)c1cc(N)cc(-n2cccc2)c1 | 116 to 118 °C
16 | O=C(/C=C/c1cccnc1)NCCc1cccc(OCc2ccccc2)c1 | 115 to 116 °C
17 | Oc1cc(-c2ccccc2)nc2ccc(Cl)cc12 | > 350 °C
18 | ClCc1ccc(OCc2coc(/C=C/c3ccccc3)n2)cc1 | 116 to 117 °C

Row | Structure (SMILES) | melting point
19 | N#CC1(c2ccccc2Oc2ccc(Cl)cc2)CCNCC1 | 128 to 130 °C
20 | O=C(NC1CC2CCC1C2)n1cc(F)c(=O)[nH]c1=O (stereo not given) | 252 to 255 °C
21 | CCOc1cc(-c2c(C(=O)OC)c(C(=O)OC)c(O)c3cc(OC)c(OC)c(OC)c23)ccc1OC | 158 °C
22 | CCCCCCCCCCCCCCOc1ccc(CN(C(C)=O)c2cccc(CO)c2)cc1 | 65 to 67 °C
23 | COc1ccc(S(=O)(=O)C(CCc2ccccc2)CC(=O)O)cc1OC (stereo not given) | 161 to 162 °C
24 | Cc1noc(-c2ncn3c2[C@@H]2CCCN2C(=O)c2c-3ccc(F)c2Cl)n1 | 245 to 246 °C
25 | O=C(N[C@H](Cc1ccccc1C(F)(F)F)[C@@H](O)c1ccc(F)cc1)c1cccc2ccccc12 (racemic) | 193 to 194 °C
26 | CNc1nc(C)c(-c2nc3ccccc3c(=O)n2-c2ccc(Cl)cc2)s1 | 195 to 197 °C
27 | O=C1O[C@@H]2C[C@@]1(O)CC[C@H]2O | 212 to 214 °C
28 | CCCCCN1C(=O)C(N)(CC(=O)c2cccs2)c2ccccc21 (stereo not given) | 167 to 169 °C
29 | O=C(Nc1ccc(F)cc1)c1ccccc1 | 167 to 168 °C
30 | CN(C)C(=O)c1c(CNS(=O)(=O)c2cccc(Cl)c2)nn(-c2ccc(Cl)cc2Cl)c1-c1ccc(Cl)cc1 | 178 °C
31 | CNC(=O)C(=NOC)c1ccccc1COc1ccc(Sc2ccccc2)cn1 | 95 to 96 °C
32 | COc1cc(N(C)C)nc(NC(=O)NS(=O)(=O)c2ccccc2CCC(F)(F)F)n1 | 183 to 184 °C
33 | C#CCc1c(C)nc(C)nc1NCc1ccc(-c2ccccc2-c2nnn[nH]2)cc1 | 205 to 206 °C
34 | COC(=O)C1(C)Oc2ccc(Cl)cc2C(C)(c2ccccc2)O1 (stereo not given) | 134 °C
35 | O=C(O)c1cc(Br)c2ccccn2c1=O | > 250 °C
36 | O=C(c1ccc(S)cc1)c1ccc([N+](=O)[O-])cc1 | 116 to 117 °C

Further lines, results first:

Row | melting point | Structure (SMILES)
37 | 85 to 90 °C | CC(Sc1ccc(OC(C)(C)C(=O)O)cc1)c1cccc2c1cnn2-c1ccc(C(F)(F)F)cc1 (racemic)
38 | 156 to 158 °C | O=C(Cc1cccc(C(F)(F)F)c1)NCc1cccc2c1C(=O)N(C1CCC(=O)NC1=O)C2=O (stereo not given)
39 | 153 to 154 °C | Cn1c(NCCCOc2cccc(CN3CCCCC3)c2)nc2ccccc21
40 | 81 to 82 °C | Cc1coc2c1C(=O)CC(c1ccc(F)cc1)C2 (stereo not given)
41 | 160 to 162 °C | CC(c1ccc2c(c1)Cc1ccccc1-2)n1ccnn1 (stereo not given)
42 | 174 to 177 °C | CC(C)(C)NCC(O)COc1ccc(-c2nc(C#N)c[nH]2)cc1 (stereo not given)
43 | > 250 °C | CN1Cc2c(C(N)=O)ncn2-c2sccc2C1=O
44 | 200 to 201 °C | O=C(Nc1ccc(-n2nc(C(F)(F)F)cc2C(F)(F)F)cc1)c1ccc(C(F)(F)F)cc1C(F)(F)F
45 | 126 to 127 °C | O=C1CCN(Cc2ccc(C(F)(F)F)cc2)CC1C(c1ccc(F)cc1)c1ccc(F)cc1 (stereo not given)
46 | 138 to 140 °C | COc1ccc(C2CCN(c3c(C)c(C)c4c(c3C)C(Nc3ccccc3)C(C)(C)O4)CC2)cc1OC (stereo not given)
47 | 230 °C | O=C(O)c1ccc2c(c1)OCC(=O)N2Cc1ccccc1
48 | 196 to 199 °C | Cc1c(Cc2ccncc2)nnc(Nc2ccc(Cl)cc2)c1C
49 | 105 to 107 °C | COC(=O)C(Cc1ccc(-c2nc3ccc(OC)cc3n2C)cc1)N=[N+]=[N-] (stereo not given)
50 | 281 to 283 °C | COc1cccc2c(=O)cc(-c3ccc(O)cc3)oc12
51 | 192 to 194 °C | COc1cc2c(cc1Nc1ncc(Cl)c(Nc3ccccc3OC)n1)CCOC(=O)N2C
52 | 240 to 245 °C | O=C1NC(=O)C(c2ccc(NC(=O)c3ccccc3)cc2)S1 (stereo not given)
53 | 200 °C | Cc1cccc(Cl)c1NS(=O)(=O)c1nc(N)n(C(=O)Oc2ccccc2)n1

Row | melting point | Structure (SMILES)
54 | 212 °C | O=C(c1ccccc1NCc1ccncc1)[NH+]([O-])c1cc2ccccc2cn1 (stereo not given)
55 | 190 °C | CC(C)Cc1nc2sc3c(NCCN4CCOCC4)ncnc3c2c2c1CCC(C)(C)C2
56 | 200 to 202 °C | CC(=O)Nc1cccc(-n2c(=O)c(CCCc3ccncc3)cc3cccnc32)c1
57 | 165 °C | CCc1nc(Cl)c2c(-c3ccc([N+](=O)[O-])o3)nn(C)c2n1
58 | 176 to 177 °C | C=CCn1c(=O)c2cnc(Nc3ccc(N4CCN(C)CC4)cc3)nc2n(C(C)C)c1=O
59 | 141 to 143 °C | Cc1c(N2CC(COC(=O)C(C)C)C(COC(=O)C(C)C)C2)c(F)cc2c(=O)c(C(=O)O)cn(C3CC3)c12 (stereo not given)
60 | 130 to 131 °C | O=C(NCCN1CCN(C(c2ccccc2)c2cccnc2)CC1)C1CSC(c2cccnc2)N1 (stereo not given)
61 | 123 to 125 °C | CCCC(=O)c1cnc2c(OC)cccc2c1Nc1ccc(OC(=O)C(C)C)cc1C
62 | 238 to 240 °C | Nc1ccc(C2=NNC(=O)Cc3cc4c(cc32)OCO4)c(Cl)c1
63 | 168 to 171 °C | COc1ccc2c(n1)C1(CO2)C(=O)N(Cc2ccccn2)c2ccccc21 (stereo not given)
64 | 153 to 154 °C | CON(Cc1ccccc1C)C(=O)C1=C(O)C(=O)N(C)C1
65 | 117 to 119 °C | COc1ccc(NCC(=O)N2CCC(Cc3ccccc3)CC2)cc1
66 | 201 to 204 °C | Cc1cccc(-c2cn(C)cc(-c3ccc(Br)cc3)c2=O)c1
67 | 138 to 140 °C | CC[C@H]1COC(=O)N1c1nc(-c2ccc(Br)cc2)cs1
68 | 157 to 162 °C | Cn1c(COc2ccc(CC3SC(=O)NC3=O)cc2)nc2ccc(OCCc3ccc(NC(=O)Nc4ccc(Cl)cc4)cc3)cc21 (stereo not given)
69 | 236 °C | CC(C)(C)OC(=O)[C@H]1CC[C@H](c2ccccc2)N1C(=O)CNC(=O)Nc1cccc(C(=O)O)c1 (racemic)
70 | 165 to 167 °C | COc1ccc(N2CCN(c3c(C)c(C)c4c(c3C)CC(C)(CN3CCC5(CC3)OCCO5)O4)CC2)cc1 (stereo not given)
